Consider one compound from patent publication US10889543B2, “Fine-tune modulators of neuronal excitability for neuropsychiatric disorders” (THE BOARD OF REGENTS OF THE UNIVERSITY OF TEXAS SYSTEM, priority 2016, dated 2021).

Assay [1] deals with nucleus accumbens medium spiny neurons. The experiment in a line: Ex vivo whole-cell patch clamp of neuronal firing in brain tissue slices. Format: cell-based, mice. An excerpt:
It is known in the art that nucleus accumbens plays a critical role in reinforcement-associated learning and in addiction-related behavior. See e.g., Woodruff-Pak, D. S., et al., Behavioral neuroscience 120:229-240 (2006); McKinney, B. C., et al., Genes, brain, and behavior 7:629-638 (2008). It has been shown that Nav1.6 channels are expressed at the nucleus accumbens medium spiny neurons. Shah, B. S., et al., The Journal of Physiology 534(Pt 3):763-776 (2001). The effect of ZL0181 on neuronal firing along with active and passive properties was tested using whole-cell patch clamp techniques in brain tissue slices. Nucleus accumbens medium spiny neurons (MNS) were treated with either DMSO (0.05×) or ZL0181 (50 μM) for one hour in an incubation chamber before being transferred to submerge experimental chamber perfused with oxygenated artificial cerebrospinal fluid for patch clamp experiments. […] For instance, at current step of 150 pA the number of spikes in DMSO treated MSNs was 18.4±1.3, n=8 versus 6.9±2.3, n=10 in ZL0181 treated MSNs; p<0.005 with Student t-test (FIG. 4B, Chart C). To test the mechanisms underlying neuronal firing reduction and related to sodium channels activity, action potential voltage and current thresholds were measured.
Coronal nucleus accumbens slices were prepared from FGF14−/− or wild type mice either treated with ZL0181 or vehicle control. Evoked action potentials were recorded in regular ASCF solution at 30-31° C. using Axopatch 200B and 700B amplifiers (Molecular Devices, Union City, Calif.). Recordings were filtered at 2 kHz and digitized at 10-20 kHz using a Digidata 1320 analog-to-digital interface and pClamp9 acquisition software (Molecular Devices, Union City, Calif.). Patch pipettes (4-6 MΩ) were prepared from borosilicate glass using a Narishige PC-10 vertical puller (Narishige International Inc., East Meadow, N.Y.). The extracellular bath solution contained (in mM) 130 NaCl, 3.5 KCl, 10 glucose, 1.5 MgCl2, 1.4 CaCl2, 23 NaHCO3, 1.25 NaH2PO4, osmolarity 300-310, pH 7.4, and the intracellular recording solution contained (in mM) 120 CH3KO3S, 10 KCl, 10 HEPES, 10 glucose, 2 MgCl2, 0.5 EGTA, 2 MgATP, and 0.5 NaGTP, osmolarity 280-290, pH 7.3. Upon forming a whole-cell connection, artificial cerebrospinal fluid containing 10 μM bicucilline (Tocris Bioscience), 30 μM NBQX (Tocris Bioscience), and 100 μM D-APV (Tocris Bioscience) was perfused into the bath solution in order to block synaptic transmission.
After seal formation and membrane rupture, action potential trains were evoked with current step protocol injections of 10 pA increment.

The next assay addresses T1, Nav1.6 channels (Homo sapiens, UniProt Q9UQD0).
T1 construct: expressed in transfected cells; host or cells: HEK-Nav1.6 (HEK293 stably expressing Nav1.6, G418 selection)
Nature of the assay: Whole-cell patch clamp of Na+ currents in HEK-Nav1.6 cells expressing GFP (Nav1.6 channels alone). Format: cell-based. The method, then: To determine the role of compounds of the invention in Nav1.6 channels alone and Nav1.6 channels in the presence of FGF14, 2×2 experimental groups using compound ZL0181, an exemplary embodiment, were designed. HEK-Nav1.6 cells were transiently transfected with GFP or […] and treated with either DMSO (0.15% final concentration, control group) or ZL0181 (20 μM, final concentration) 20-60 min prior to the experiments. […] Thus, ZL0181 inhibits peak current amplitude of Na1.6 current.
Furthermore, using a range of doses from 1 μM to 100 μM a dose-response profile for ZL0181 in HEK293-Nav1.6 cells alone and HEK-Nav1.6 cells transfected with FGF14 was developed.
HEK-Nav1.1, […] HEK-Nav1.6 were maintained in medium composed of equal volumes of DMEM and F-12 (Invitrogen) supplemented with 0.05% glucose, 0.5 mm pyruvate, 10% fetal bovine serum, 100 units/ml penicillin, 100 μg/ml streptomycin incubated at 37° C. with 5% CO2. For selection of Nav1.1 and Nav1.2, 500 μg/ml G418 (Invitrogen) was used, and for selection of Nav1.6, 80 μg/ml G418 (Invitrogen) was used. Cells were transfected according to manufacturer's instructions at 90-100% confluency using Lipofectamine 2000 (Invitrogen). See e.g., Shavkunov, A., et al. Assay and drug development technologies 10(2):148-160 (2012).
Detailed methods for path-clamp experiments is known in the art. See e.g., Ali, S. R., et al., Journal of Biological Chemistry 291:11268 (2016).

Residues, ends and D or L forms follow the SMILES beside them. *: point of attachment. Cbz = O=C(OCc1ccccc1)*; Boc = CC(C)(C)OC(=O)*

T1 sequence (Q9UQD0 whole entry): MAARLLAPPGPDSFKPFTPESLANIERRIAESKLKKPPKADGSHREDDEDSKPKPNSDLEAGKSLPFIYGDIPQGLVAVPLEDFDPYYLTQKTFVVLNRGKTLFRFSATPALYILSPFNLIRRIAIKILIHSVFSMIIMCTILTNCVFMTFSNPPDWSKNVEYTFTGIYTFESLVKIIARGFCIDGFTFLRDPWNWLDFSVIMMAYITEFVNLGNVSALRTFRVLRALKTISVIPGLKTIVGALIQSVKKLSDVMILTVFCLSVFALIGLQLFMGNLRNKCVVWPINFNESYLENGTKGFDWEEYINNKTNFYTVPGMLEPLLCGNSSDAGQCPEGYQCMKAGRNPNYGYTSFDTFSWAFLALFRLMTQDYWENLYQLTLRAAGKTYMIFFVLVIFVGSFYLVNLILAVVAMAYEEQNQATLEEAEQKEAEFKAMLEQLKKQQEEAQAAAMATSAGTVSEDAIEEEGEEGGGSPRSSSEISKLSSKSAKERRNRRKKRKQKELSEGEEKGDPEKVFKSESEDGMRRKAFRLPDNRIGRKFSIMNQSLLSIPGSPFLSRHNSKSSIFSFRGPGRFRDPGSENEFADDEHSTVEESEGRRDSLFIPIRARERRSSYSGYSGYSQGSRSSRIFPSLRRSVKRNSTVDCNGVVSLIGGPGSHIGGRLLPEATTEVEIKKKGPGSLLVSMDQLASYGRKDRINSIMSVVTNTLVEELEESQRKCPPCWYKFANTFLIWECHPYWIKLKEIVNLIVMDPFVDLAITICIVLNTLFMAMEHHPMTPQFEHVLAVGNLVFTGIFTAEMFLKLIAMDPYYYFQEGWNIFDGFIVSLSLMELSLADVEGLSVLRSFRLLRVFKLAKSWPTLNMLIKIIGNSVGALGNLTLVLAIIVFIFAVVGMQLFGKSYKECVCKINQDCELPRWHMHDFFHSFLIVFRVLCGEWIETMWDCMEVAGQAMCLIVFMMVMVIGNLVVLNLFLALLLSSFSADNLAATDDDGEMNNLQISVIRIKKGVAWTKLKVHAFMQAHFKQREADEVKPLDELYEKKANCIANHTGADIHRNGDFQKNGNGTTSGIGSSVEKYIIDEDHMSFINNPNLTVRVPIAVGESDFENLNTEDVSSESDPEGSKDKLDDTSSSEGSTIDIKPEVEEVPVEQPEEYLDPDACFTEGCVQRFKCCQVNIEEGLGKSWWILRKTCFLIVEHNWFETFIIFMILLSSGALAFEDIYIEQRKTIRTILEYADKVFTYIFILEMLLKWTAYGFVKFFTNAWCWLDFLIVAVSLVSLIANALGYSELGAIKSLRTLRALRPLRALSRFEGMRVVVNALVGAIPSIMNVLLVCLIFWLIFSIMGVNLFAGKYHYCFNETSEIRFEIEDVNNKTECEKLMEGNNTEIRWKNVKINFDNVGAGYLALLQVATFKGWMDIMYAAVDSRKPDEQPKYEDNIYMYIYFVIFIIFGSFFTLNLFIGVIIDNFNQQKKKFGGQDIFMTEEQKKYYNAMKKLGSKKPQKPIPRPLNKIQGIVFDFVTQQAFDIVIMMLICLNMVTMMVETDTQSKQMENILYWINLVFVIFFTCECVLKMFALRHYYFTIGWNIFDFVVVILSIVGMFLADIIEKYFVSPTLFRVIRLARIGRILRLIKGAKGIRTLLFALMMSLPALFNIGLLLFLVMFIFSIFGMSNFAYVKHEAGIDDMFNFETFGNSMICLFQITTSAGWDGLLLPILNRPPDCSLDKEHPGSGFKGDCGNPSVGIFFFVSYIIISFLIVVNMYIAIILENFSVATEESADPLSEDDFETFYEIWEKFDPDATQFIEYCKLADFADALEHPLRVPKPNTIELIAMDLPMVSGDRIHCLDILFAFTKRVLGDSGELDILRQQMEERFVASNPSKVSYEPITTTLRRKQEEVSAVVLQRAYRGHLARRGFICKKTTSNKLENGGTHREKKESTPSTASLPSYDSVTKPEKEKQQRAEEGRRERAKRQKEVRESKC

`CC(C)C[C@H](NC(=O)[C@H](Cc1ccccc1)NC(=O)OCc1ccccc1)C(=O)N1CCC[C@H]1C(=O)N[C@@H](CCCCNC(=O)OC(C)(C)C)C(N)=O` [ZL0181, Z-Phe-Leu-Pro-Lys(Boc)-NH2] (Cbz-FLPK(Boc)-NH2): the number of spikes in assay [1] (50 μM for one hour, current step of 150 pA, n=10, DMSO 18.4±1.3) is 6.9±2.3. For the same compound, the “action potential current threshold” value in assay [1] (50 μM for one hour, n=10, DMSO 72.5±11.5) was determined as 135.8±12.5 pA. For the same compound, in assay [1] (50 μM for one hour, n=10, DMSO −35.9±2.3), the “action potential voltage threshold” value is −27.8±2 mV. The “further neuronal active and passive properties” value in assay [1] (50 μM, compared to DMSO control) was “no significant changes”. For the same compound, the “activation and inactivation properties of Nav channel alone” value at Nav1.6 channels (20 μM, HEK-Nav1.6 cells with GFP) is “does not change activation and inactivation properties”. Moreover, on Nav1.6 channels (HEK293-Nav1.6 cells alone, doses 1 μM to 100 μM, read-out: IC50, inhibition of Nav1.6 encoded currents), the IC50 stood at 19.7 ± 5.7 µM. Also, the “Nav1.6-mediated peak current density” value at Nav1.6 channels (HEK-Nav1.6 cells with GFP, pretreated with 20 μM, n=12, DMSO control −73.8±13.6) is on record as −20.9±3.4 pA/pF.
